# Laboratory results from patent US12660819B2, “Herbicidal derivatives” (SYNGENTA CROP PROTECTION AG, priority 2020, dated 2026).
# Columns and labels:
# Format in all cases: in vivo
# [1] = test system: Ipomoea hederacea (IPOHE); assay: Pre-emergence Test (glasshouse, percentage damage to the plant); conditions: 1000 g/ha unless otherwise stated; for percentage damage to the plant, IPOHE (five-point scale): Ipomoea hederacea
# [2] = test system: Zea mays (ZEAMX); assay: as above; conditions: 1000 g/ha unless otherwise stated; for percentage damage to the plant, ZEAMX (five-point scale): Zea mays
# [3] = test system: Echinochloa crus-galli (ECHCG); assay: as above; conditions: 1000 g/ha unless otherwise stated; for percentage damage to the plant, ECHCG (five-point scale): Echinochloa crus-galli
# [4] = test system: Amaranthus palmeri (AMAPA); assay: as above; conditions: 1000 g/ha unless otherwise stated; for percentage damage to the plant, AMAPA (five-point scale): Amaranthus palmeri
# [5] = test system: Amaranthus retoflexus (AMARE); assay: as above; conditions: 1000 g/ha unless otherwise stated; for percentage damage to the plant, AMARE (five-point scale): Amaranthus retoflexus
# [6] = test system: Setaria faberi (SETFA); assay: as above; conditions: 1000 g/ha unless otherwise stated; for percentage damage to the plant, SETFA (five-point scale): Setaria faberi
# [7] = test system: Echinochloa crus-galli (ECHCG); assay: Post-emergence Test (glasshouse, percentage damage to the plant); conditions: post-emergence; 1000 g/ha unless otherwise stated; evaluated after 13 days
# Summary of the method: (§1)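 Spray treatment of sown glasshouse pots at 1000 g/ha (default rate), vehicle acetone/water 50:50 plus 0.5% Tween 20. Read-out: percentage damage after 13 days, converted to a score where 5 denotes 81-100% and 1 denotes 0-20%.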
# [8] = test system: Zea mays (ZEAMX); assay: as above; conditions: 1000 g/ha unless otherwise stated, evaluated after 13 days; for ZEAMX, percentage damage caused to the plant (five-point scale): post-emergence
# Summary of the method: (§2)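 Seeds sown in pots in glasshouse (24/16 °C day/night, 14 h light, 65% humidity), then sprayed with compound at 1000 g/ha unless stated, from acetone/water 50:50 with 0.5% Tween 20. Damage assessed 13 days later on five-point scale (1=0–20% to 5=81–100%).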
# [9] = test system: Amaranthus palmeri (AMAPA); assay: as above; conditions: 1000 g/ha unless otherwise stated, evaluated after 13 days; for AMAPA, percentage damage caused to the plant (five-point scale): post-emergence
# Summary of the method: as §1
# [10] = test system: Setaria faberi (SETFA); assay: as above; conditions: 1000 g/ha unless otherwise stated, evaluated after 13 days; for SETFA, percentage damage caused to the plant (five-point scale): post-emergence
# Summary of the method: as §2
# [11] = test system: Ipomoea hederacea (IPOHE); assay: as above; conditions: 1000 g/ha unless otherwise stated, evaluated after 13 days; for IPOHE, percentage damage caused to the plant (five-point scale): post-emergence
# Summary of the method: as §2
# [12] = test system: Amaranthus retoflexus (AMARE); assay: as above; conditions: 1000 g/ha unless otherwise stated, evaluated after 13 days; for AMARE, percentage damage caused to the plant (five-point scale): post-emergence
# Summary of the method: as §1
Compound,"percentage damage to the plant, IPOHE (five-point scale) [1]","percentage damage to the plant, ZEAMX (five-point scale) [2]","percentage damage to the plant, ECHCG (five-point scale) [3]","percentage damage to the plant, AMAPA (five-point scale) [4]","percentage damage to the plant, AMARE (five-point scale) [5]","percentage damage to the plant, SETFA (five-point scale) [6]","ZEAMX, percentage damage caused to the plant (five-point scale) [8]","AMAPA, percentage damage caused to the plant (five-point scale) [9]","SETFA, percentage damage caused to the plant (five-point scale) [10]","IPOHE, percentage damage caused to the plant (five-point scale) [11]","AMARE, percentage damage caused to the plant (five-point scale) [12]",other results
"CCn1c(C)c(-c2ccc(F)cc2F)c(=O)c(C(=O)OC)c1-c1cnc(Cl)c(Cl)c1 [Compound 213, methyl 2-(5,6-dichloro-3-pyridyl)-5-(2,4-difluorophenyl)-1-ethyl-6-methyl-4-oxo-pyridine-3-carboxylate]",0,0,0,0,0,0,1 (1=0-20%),3 (3=41-60%),0,1 (1=0-20%),,"ECHCG, percentage damage caused to the plant (five-point scale) [7]: 0"
"CCn1c(C)c(-c2ccc(Cl)cc2F)c(=O)c(C(=O)OC)c1-c1cnc(Cl)c(Cl)c1 [Compound 282, methyl 5-(4-chloro-2-fluoro-phenyl)-2-(5,6-dichloro-3-pyridyl)-1-ethyl-6-methyl-4-oxo-pyridine-3-carboxylate]",0,,1 (1=0-20%),4 (4=61-80%),3 (3=41-60%),1 (1=0-20%),3 (3=41-60%),4 (4=61-80%),1 (1=0-20%),2 (2=21-40%),4 (4=61-80%),"ECHCG, percentage damage caused to the plant (five-point scale) [7]: 4 (4=61-80%)"
"CCN(CC)S(=O)(=O)c1ccc(-c2c(C)n(CC)c(-c3ccc(Cl)c(Cl)c3)c(C(=O)O)c2=O)cc1 [Compound 237, 2-(3,4-dichlorophenyl)-5-[4-(diethylsulfamoyl)phenyl]-1-ethyl-6-methyl-4-oxo-pyridine-3-carboxylic acid]",0,0,2 (2=21-40%),1 (1=0-20%),0,1 (1=0-20%),1 (1=0-20%),4 (4=61-80%),3 (3=41-60%),2 (2=21-40%),1 (1=0-20%),
"CCn1c(C)c(-c2cc(OC(F)(F)F)ccc2Cl)c(=O)c(C(=O)O)c1-c1ccc(Cl)c(Cl)c1 [Compound 224, 5-[2-chloro-5-(trifluoromethoxy)phenyl]-2-(3,4-dichlorophenyl)-1-ethyl-6-methyl-4-oxo-pyridine-3-carboxylic acid]",2 (2=21-40%),2 (2=21-40%),5 (5=81-100%),4 (4=61-80%),3 (3=41-60%),5 (5=81-100%),3 (3=41-60%),5 (5=81-100%),5 (5=81-100%),2 (2=21-40%),5 (5=81-100%),
"CCn1c(C)c(-c2ccc(Cl)cc2SC)c(=O)c(C(=O)O)c1-c1ccc(Cl)c(Cl)c1 [Compound 158, 5-(4-chloro-2-methylsulfanyl-phenyl)-2-(3,4-dichlorophenyl)-1-ethyl-6-methyl-4-oxo-pyridine-3-carboxylic acid]",,,,,,,,,,,,"percentage damage to the plant, IPOHE ([1]; five-point scale): 0; percentage damage to the plant, ZEAMX ([2]; five-point scale): 0; percentage damage to the plant, ECHCG ([3]; five-point scale): 0; percentage damage to the plant, AMAPA ([4]; five-point scale): 3 (3=41-60%); percentage damage to the plant, AMARE ([5]; five-point scale): 0; percentage damage to the plant, SETFA ([6]; five-point scale): 0; Post-emergence Test ZEAMX, percentage damage to the plant (five-point scale) ([8]; post-emergence spray): 1 (1=0-20%); Post-emergence Test AMARE, percentage damage to the plant (five-point scale) ([12]; post-emergence spray): 4 (4=61-80%); Post-emergence Test AMAPA, percentage damage to the plant (five-point scale) ([9]; post-emergence spray): 5 (5=81-100%); Post-emergence Test SETFA, percentage damage to the plant (five-point scale) ([10]; post-emergence spray): 1 (1=0-20%); Post-emergence Test IPOHE, percentage damage to the plant (five-point scale) ([11]; post-emergence spray): 2 (2=21-40%)"
"CCn1c(C)c(-c2ccc(F)c(OC)c2F)c(=O)c(C(=O)O)c1-c1ccc(Cl)c(Cl)c1 [Compound 234, 2-(3,4-dichlorophenyl)-5-(2,4-difluoro-3-methoxy-phenyl)-1-ethyl-6-methyl-4-oxo-pyridine-3-carboxylic acid]",4 (4=61-80%),2 (2=21-40%),5 (5=81-100%),3 (3=41-60%),2 (2=21-40%),5 (5=81-100%),3 (3=41-60%),5 (5=81-100%),4 (4=61-80%),4 (4=61-80%),4 (4=61-80%),
"CCn1c(C)c(-c2cccc3c2OC(F)(F)O3)c(=O)c(C(=O)O)c1-c1ccc(Cl)c(Cl)c1 [Compound 223, 2-(3,4-dichlorophenyl)-5-(2,2-difluoro-1,3-benzodioxol-4-yl)-1-ethyl-6-methyl-4-oxo-pyridine-3-carboxylic acid]",0,1 (1=0-20%),1 (1=0-20%),3 (3=41-60%),1 (1=0-20%),3 (3=41-60%),1 (1=0-20%),5 (5=81-100%),3 (3=41-60%),1 (1=0-20%),5 (5=81-100%),
"CCn1c(C)c(-c2cc(F)ccc2C)c(=O)c(C(=O)O)c1-c1ccc(Cl)c(Cl)c1 [Compound 222, 2-(3,4-dichlorophenyl)-1-ethyl-5-(5-fluoro-2-methyl-phenyl)-6-methyl-4-oxo-pyridine-3-carboxylic acid]",1 (1=0-20%),1 (1=0-20%),1 (1=0-20%),1 (1=0-20%),1 (1=0-20%),1 (1=0-20%),1 (1=0-20%),5 (5=81-100%),3 (3=41-60%),3 (3=41-60%),3 (3=41-60%),
"CCn1c(C)c(-c2ccnn2C)c(=O)c(C(=O)O)c1-c1ccc(Cl)c(Cl)c1 [Compound 241, 2-(3,4-dichlorophenyl)-1-ethyl-6-methyl-5-(2-methylpyrazol-3-yl)-4-oxo-pyridine-3-carboxylic acid]",3 (3=41-60%),1 (1=0-20%),5 (5=81-100%),2 (2=21-40%),3 (3=41-60%),5 (5=81-100%),3 (3=41-60%),5 (5=81-100%),4 (4=61-80%),3 (3=41-60%),5 (5=81-100%),
"CCn1c(C)c(-c2cc(F)ccc2OC)c(=O)c(C(=O)O)c1-c1ccc(Cl)c(Cl)c1 [Compound 235, 2-(3,4-dichlorophenyl)-1-ethyl-5-(5-fluoro-2-methoxy-phenyl)-6-methyl-4-oxo-pyridine-3-carboxylic acid]",0,0,0,3 (3=41-60%),0,0,1 (1=0-20%),4 (4=61-80%),2 (2=21-40%),3 (3=41-60%),3 (3=41-60%),
